Data on 4 compounds can be found in patent publication US20100036088A1, “Selective poly-N-substituted glycine antibiotics” (priority 2008, published 2010).

Structures are written as SMILES. ≈ marks a conversion by molar mass, not a printed value. Where “and” joins values, the source holds several entries; their conditions need not be identical. Identical values can stand only once. Like-named read-outs stand apart in the source and are kept apart here. Numbered stars: 1 amine (or outer) side, 2 acyl side, 3 side chain; on linkers, the order of the positions; unused ones are H or OH. Square brackets hold non-standard residues; d marks the D form. Peptide text beside a SMILES is read from it. X1 = CC(C)[C@H](C)N(CC(=O)[*:2])[*:1]; Nspe = C[C@H](NCC(=O)O)c1ccccc1; Nphe = O=C(O)CNCc1ccccc1; Nlys = NCCCCNCC(=O)O

The test system of one series is E. coli (ATCC 35218). It is filed as cell-based. The procedure, abridged:
(§1)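 MICs by broth microdilution per CLSI M7-A6 in cation-adjusted Mueller-Hinton broth, using 2:1 serial dilutions of peptoid and a bacterial inoculum of 1×10^6 CFU/mL. Values reproducible over three experiments, each with two parallel trials.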

The subject of a further series is B. subtilis (ATCC 6633). It is filed as cell-based. The method, boiled down:
as §1

The test system of series [1] is Enterococcus faecalis ATCC 29212. It is filed as cell-based. The conditions noted are these: for MIC E. faecalis ATCC 29212: Table 7A. The method, boiled down: (§2)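 MIC read after 24 hours at 35° C., following CLSI M7-A6 microdilution in MHB with 5×10^5 CFU/ml bacteria added to equal volume of 1:2 serially diluted compound. Enterococcal strains 99 and 106 are vancomycin-resistant; S. aureus NRS119 is a linezolid-resistant isolate.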

The subject of series [2] is Escherichia coli ATCC 25922. The format is cell-based. The conditions noted are these: for MIC E. coli ATCC 25922: Table 7A. The procedure, abridged:
as §2

In series [3] the test system is Staphylococcus aureus NRS120. It is filed as cell-based. The conditions noted are these: for MIC S. aureus NRS120: Table 7A, linezolid-resistant. The method, boiled down:
as §2

In series [4] the test system is Klebsiella pneumoniae ATCC 33495. It is filed as cell-based. The settings on record: for MIC K. pneumoniae ATCC 33495: Table 7A. The method, boiled down:
as §2

A short description of series [5]: RP-HPLC elution solvent composition as measure of molecular hydrophobicity. It is filed as physicochemical. The settings on record: Table 5; average of three injections; linear 5%-95% acetonitrile/water (0.1% TFA) over 45 minutes, C18 column; measure of hydrophobicity. The text has this:
An initial set of 15 ampetoid analogs was synthesized to determine whether peptoids are affected by structural and sequence modifications in a manner consistent with AMP activities. The designs for ampetoids in this library were derived from two antibacterial and selective amphipathic dodecamers, 1 and 2. Peptoid 1 [H-(Nlys-Nspe-Nspe)4—NH2] is composed of 2/3 Nspe, the peptoid analog of phenylalanine, and 1/3 Nlys, the peptoid analog of lysine (see FIG. 1 for the structures of representative peptoid monomers and corresponding N-substituents). Peptoid 2 [H-(Nlys-Nssb-Nspe)4—NH2] contains 1/3 isoleucine-like Nssb monomers in place of Nspe. The variant sequences were designed to effect changes in chirality, length, hydrophobicity, charge, and amphipathicity. All of these compounds were tested for antibacterial activity against representative BSL1 Gram-negative (E. coli JM109) and Gram-positive (B. subtilis BR151) bacterial strains. As an initial measure of selectivity, the lytic activity of the peptoids was determined against human erythrocytes. Table 1 summarizes the sequences synthesized, the solvent composition at RP-HPLC elution as a relative measure of molecular hydrophobicity, and antibacterial and hemolytic activities.
Following synthesis, peptoid oligomers can be cleaved from the resin, simultaneously removing the tert-butoxycarbonyl (Boc) protecting group from Nlys residues, by treatment with 10 ml 2,2,2-trifluoroacetic acid (TFA)/triisopropylsilane/H2O (95:2.5:2.5 by volume) for 30 min. The cleavage mixture is then diluted with 25 ml 50% aqueous acetonitrile, frozen, and lyophilized. Dilution and lyophilization is repeated twice more in order to remove excess TFA. Subsequent to cleavage, peptoids are each purified to >97% homogeneity by preparative scale reversed-phase HPLC using a Waters Prep LC 4000 system, with Waters 2487 dual-wavelength UV detection, and gradient elution (solvent A, 0.1 vol % trifluoroacetic acid (TFA) in water; solvent B, 0.1 vol % TFA in acetonitrile) through a Vydac (Hysperia, Calif.) 214TP101550 C4 peptide/protein column (10-15 μm, 300 Å, 5×25 cm). Following prep HPLC, peptoid purities and crude yields were determined from analytical scale HPLC, performed with a Waters 2695 Separations Module with a Waters 2487 dual-wavelength UV detector and gradient elution (solvent A, 0.1 vol % TFA in water; solvent B, 0.1 vol % TFA in acetonitrile) through a Vydac C4 214TP53 peptide/protein column (5 μm, 300 Å, 3.2×250 mm). The precise gradient employed for HPLC depended on the identity and hydrophobicity of the oligomer in question. All analytical HPLC was performed at 0.5 ml/min flow and 58° C. Preparative HPLC was performed at 50 ml/min flow and room temperature.

Consider `C[C@@H](c1ccccc1)N(CC(N)=O)C(=O)CN(C(=O)CN(CCCCN)C(=O)CN(C(=O)CN(C(=O)CN(CCCCN)C(=O)CN(C(=O)CN(C(=O)CN(CCCCN)C(=O)CN(C(=O)CN(C(=O)CNCCCCN)[C@@H](C)c1ccccc1)[C@@H](C)c1ccccc1)[C@@H](C)c1ccccc1)[C@@H](C)c1ccccc1)[C@@H](C)c1ccccc1)[C@@H](C)c1ccccc1)[C@@H](C)c1ccccc1` [compound 1, H-(NLys-Nspe-Nspe)4-NH2] (H-[Nlys][Nspe][Nspe][Nlys][Nspe][Nspe][Nlys][Nspe][Nspe][Nlys][Nspe][Nspe]-NH2), for which the “E. coli MIC” value is 6.3 µM in the series with E. coli (ATCC 35218) (Table 3, ATCC 35218, cation-adjusted MHB); 6.25 µM and 6.3 µM in the series on E. coli (ATCC 35218) (Table 6, ATCC 35218). Moreover, the “B. subtilis MIC” value in the series with B. subtilis (ATCC 6633) (Table 3, ATCC 6633, cation-adjusted MHB) turned out to be 1.6 µM; with B. subtilis (ATCC 6633) (Table 6, ATCC 6633), 1.6 µM. In addition, the “MIC Enterococcus faecalis ATCC 29212” value in series [1] (Table 4, Gram +) was determined as 2.2 µM. Further, the “MIC Escherichia coli ATCC 25922” value in series [2] (Table 4, Gram −) was found to be 2.2 µM (≈ 4 µg/mL). Moreover, in series [3] (Table 4, Gram +), the “MIC Staphylococcus aureus NRS120” value was 4.4 µM. Also, the “MIC Klebsiella pneumoniae ATCC 33495” value in series [4] (Table 4, Gram −) was 8.8 µM (≈ 16 µg/mL).

In the case of `NCCCCNCC(=O)N(CC(=O)N(CC(=O)N(CCCCN)CC(=O)N(CC(=O)N(CC(=O)N(CCCCN)CC(=O)N(CC(=O)N(CC(=O)N(CCCCN)CC(=O)N(CC(=O)N(CC(N)=O)Cc1ccccc1)Cc1ccccc1)Cc1ccccc1)Cc1ccccc1)Cc1ccccc1)Cc1ccccc1)Cc1ccccc1)Cc1ccccc1` [1achiral, H-(Nlys-Npm-Npm)4-NH2] (H-[Nlys][Nphe][Nphe][Nlys][Nphe][Nphe][Nlys][Nphe][Nphe][Nlys][Nphe][Nphe]-NH2), in the series on B. subtilis (ATCC 6633) (ATCC 6633), the “B. subtilis MIC” value was 0.78 µM. In addition, the “HPLC elution (% ACN)” value in series [5] was 59.8 % ACN. Further, the “MIC Enterococcus faecalis ATCC 29212” value in series [1] (ATCC 29212) turned out to be 9.4 µM (≈ 16 µg/mL). Moreover, in series [1], the “MIC E. faecalis ATCC 29212” value came to 16 µg/mL (≈ 9.37 µM). Also, the “MIC Escherichia coli ATCC 25922” value in series [2] (ATCC 25922) was found to be 9.4 µM (≈ 16 µg/mL). Besides, the “MIC E. coli ATCC 25922” value in series [2] is 16 µg/mL (≈ 9.37 µM). In series [3] (NRS120), the “MIC Staphylococcus aureus NRS120” value was determined as 9.4 µM (≈ 16 µg/mL). Also, in series [3], the “MIC S. aureus NRS120” value stood at 16 µg/mL (≈ 9.37 µM). In series [4] (ATCC 33495), the “MIC Klebsiella pneumoniae ATCC 33495” value turned out to be 4.7 µM (≈ 8.02 µg/mL). The “MIC K. pneumoniae ATCC 33495” value in series [4] was 8 µg/mL (≈ 4.69 µM).

Regarding `CC(C)[C@H](C)N(CC(=O)N(CC(=O)N(CCCCN)CC(=O)N(CC(=O)N(CC(=O)N(CCCCN)CC(=O)N(CC(=O)N(CC(=O)N(CCCCN)CC(=O)N(CC(=O)N(CC(N)=O)[C@@H](C)c1ccccc1)[C@@H](C)C(C)C)[C@@H](C)c1ccccc1)[C@@H](C)C(C)C)[C@@H](C)c1ccccc1)[C@@H](C)C(C)C)[C@@H](C)c1ccccc1)C(=O)CNCCCCN` [1-Nsdp2,5,8,11, H-(Nlys-Nsdp-Nspe)4-NH2] (H-[Nlys][X1][Nspe][Nlys][X1][Nspe][Nlys][X1][Nspe][Nlys][X1][Nspe]-NH2), the “E. coli MIC” value in the series with E. coli (ATCC 35218) (Table 6, ATCC 35218) turned out to be 12.5 µM. In the series on B. subtilis (ATCC 6633) (ATCC 6633), the “B. subtilis MIC” value stood at 0.78 µM. The “HPLC elution (% ACN)” value in series [5] is given as 63.8 % ACN. Moreover, the “MIC Enterococcus faecalis ATCC 29212” value in series [1] (ATCC 29212) was found to be 4.8 µM (≈ 8.08 µg/mL). In addition, the “MIC E. faecalis ATCC 29212” value in series [1] came to 8 µg/mL (≈ 4.75 µM). Also, the “MIC Escherichia coli ATCC 25922” value in series [2] (ATCC 25922) worked out at 4.8 µM (≈ 8.08 µg/mL). For the same compound, the “MIC E. coli ATCC 25922” value in series [2] is 8 µg/mL (≈ 4.75 µM). Further, the “MIC Staphylococcus aureus NRS120” value in series [3] (NRS120) is 9.5 µM (≈ 16 µg/mL). The “MIC S. aureus NRS120” value in series [3] is 16 µg/mL (≈ 9.51 µM). Moreover, the “MIC Klebsiella pneumoniae ATCC 33495” value in series [4] (ATCC 33495) was 4.8 µM (≈ 8.08 µg/mL). In addition, the “MIC K. pneumoniae ATCC 33495” value in series [4] was 8 µg/mL (≈ 4.75 µM).

As to `C[C@@H](c1ccccc1)N(CC(N)=O)C(=O)CN(C(=O)CN(CCCCN)C(=O)CN(C(=O)CN(C(=O)CN(CCCCN)C(=O)[C@@H]1CCCN1C(=O)CN(C(=O)CN(CCCCN)C(=O)CN(C(=O)CN(C(=O)CNCCCCN)[C@@H](C)c1ccccc1)[C@@H](C)c1ccccc1)[C@@H](C)c1ccccc1)[C@@H](C)c1ccccc1)[C@@H](C)c1ccccc1)[C@@H](C)c1ccccc1` [1-Pro6, H-Nlys-Nspe-Nspe-Nlys-Nspe-L-Pro-(Nlys-Nspe-Nspe)2-NH2] (H-[Nlys][Nspe][Nspe][Nlys][Nspe]P[Nlys][Nspe][Nspe][Nlys][Nspe][Nspe]-NH2), the “E. coli MIC” value in the series on E. coli (ATCC 35218) (ATCC 35218) stood at 12.5 µM. Besides, the “B. subtilis MIC” value with B. subtilis (ATCC 6633) (ATCC 6633) came to 1.6 µM. The “MIC Enterococcus faecalis ATCC 29212” value in series [1] (ATCC 29212) came out at 4.6 µM (≈ 8.07 µg/mL). In addition, in series [2] (ATCC 25922), the “MIC Escherichia coli ATCC 25922” value was 9.1 µM (≈ 16 µg/mL). The “MIC Staphylococcus aureus NRS120” value in series [3] (NRS120) came out at 9.1 µM (≈ 16 µg/mL). The “MIC Klebsiella pneumoniae ATCC 33495” value in series [4] (ATCC 33495) is 9.1 µM (≈ 16 µg/mL).
